# Tests used:
# S. intermedius (1051997) = assay: MIC determination by microplate dilution, S. intermedius animal strain; type: cell-based, Staphylococcus intermedius; conditions: Gram-positive, Mueller-Hinton medium, 24 h, 37° C.; for MIC: Staphylococcus intermedius
# In short: (§1)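 Strains precultured in Mueller-Hinton broth 24 h at 37 °C; compounds from 5 mg/mL stocks in DMSO/methanol 50/50, twofold serial dilution in 96-well plates, inoculum set to OD 0.01. Incubated 24 h at 37 °C, humid; OD read at 620 nm to derive MIC, duplicates.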
# P. aeruginosa (1051575) [1] = assay: Potentiation of erythromycin activity; type: cell-based, Pseudomonas aeruginosa; conditions: concentration of compound required with erythromycin 2 μg/mL
# Procedure: (§2) This method requires the use of a 96-well plate: 100 μL of a liquid culture medium are placed in each well and then seeded with the microbial suspension prepared previously. The required volume to be seeded is calculated for an OD of 0.01, which corresponds to about 5×10^6 bacteria in each well. In this plate, the first line corresponds to a negative control (200 μL of sterile culture medium in each well), the second line corresponds to a positive control (100 μL of sterile culture medium+100 μL of the bacterial suspension), and the third line contains 192 μL of culture medium; 8 μL of compound of formula (I) to be tested are placed in each well. Thereafter, a cascade dilution is performed from this line. μL of a doxycycline solution (1 mg dissolved in 20 mL) are then added to each well of the lines 3 to 8 to obtain a final antibiotic concentration of 2 μg/mL. 92 μL of bacterial suspension are then added to lines 3 to 8. […] After 24 hours of incubation at 37° C., 40 μL of nitro tetrazolium iodide are added to each well to reveal the presence of live bacteria by staining the medium pink.
# The procedure is identical to that indicated in Example 5 above. 8 μL of an antibiotic solution under consideration (1 mg dissolved in 20 mL) are added to obtain a final antibiotic concentration of 2 μg/mL instead of 8 μL of a doxycycline solution.
# (§3) The results are given in table V. They indicate the concentration of compound of formula (I) required to be able to restore the activity of the antibiotic under consideration.
# E. coli (1956) = assay: MIC determination by microplate dilution, E. coli animal strain; type: cell-based, Escherichia coli; conditions: Gram-negative, Mueller-Hinton medium, 24 h, 37° C.; for MIC: Escherichia coli
# In short: as §1
# P. aeruginosa (1051575) [2] = assay: MIC determination by microplate dilution, P. aeruginosa animal strain; type: cell-based, Pseudomonas aeruginosa; conditions: Gram-negative, Mueller-Hinton medium, 24 h, 37° C.; for MIC: Pseudomonas aeruginosa
# In short: as §1
# P. aeruginosa (1051575) [3] = assay: Potentiation of chloramphenicol activity; type: cell-based, Pseudomonas aeruginosa
# Procedure: as §2, with “Thereafter, a cascade dilution is performed from this line. μL of a doxycycline solution (1 mg dissolved in 20 mL) are then added to each well of the lines 3 to 8 to obtain a final antibiotic concentration of 2 μg/mL.” left out
# (§4) The procedure is identical to that indicated in Example 5 above. […]
# as §3
# S. aureus (340) = assay: MIC determination by microplate dilution, S. aureus animal strain; type: cell-based, Staphylococcus aureus; conditions: Gram-positive, Mueller-Hinton medium, 24 h, 37° C.; for MIC: Staphylococcus aureus
# In short: as §1
# P. aeruginosa (1051575) [4] = assay: Potentiation of ampicillin activity; type: cell-based, Pseudomonas aeruginosa; conditions: concentration of compound required with ampicillin 4 μg/mL
# Procedure: as §2, with “Thereafter, a cascade dilution is performed from this line. μL of a doxycycline solution (1 mg dissolved in 20 mL) are then added to each well of the lines 3 to 8 to obtain a final antibiotic concentration of 2 μg/mL.” left out
# as §4, §3
# E. faecalis ATCC29212 = assay: MIC determination by microplate dilution, E. faecalis human strain; type: cell-based, Enterococcus faecalis; conditions: Mueller-Hinton medium, 24 h, 37° C.; for MIC: Enterococcus faecalis, ATCC29212, Gram-positive
# In short: as §1
# E. coli ATCC28922 = assay: MIC determination by microplate dilution, E. coli human strain; type: cell-based, Escherichia coli; conditions: Mueller-Hinton medium, 24 h, 37° C.; for MIC: Escherichia coli, ATCC28922, Gram-negative
# In short: as §1
# S. aureus ATCC25923 = assay: MIC determination by microplate dilution, S. aureus human strain; type: cell-based, Staphylococcus aureus; conditions: Mueller-Hinton medium, 24 h, 37° C.; for MIC: Staphylococcus aureus, ATCC25923, Gram-positive
# In short: as §1
# P. aeruginosa ATCC27853 = assay: MIC determination by microplate dilution, P. aeruginosa human strain; type: cell-based, Pseudomonas aeruginosa; conditions: Mueller-Hinton medium, 24 h, 37° C.; for MIC: Pseudomonas aeruginosa, ATCC27853, Gram-negative
# In short: as §1
# P. aeruginosa (1051575) [5] = assay: Potentiation of the doxycycline activity at 2 μg/mL; type: cell-based, Pseudomonas aeruginosa; conditions: in combination with doxycycline 2 μg/mL; 24 h, 37°
# C. albicans = assay: Antifungal activity, cascade microdilution, C. albicans; type: cell-based, Candida albicans; conditions: compounds as hydrochloride in water, MH medium, 24 h
# CHO-K1 cells = assay: WST1 cytotoxicity test on CHO-K1 cells; type: cell-based, Chinese hamster
# In short: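 Viability read-out: WST-1 tetrazolium cleavage by mitochondrial dehydrogenases, 20 min at 37 °C, A450. Compounds added at rising concentrations, in duplicate, to CHO-K1 cells for 24 h (37 °C, 5% CO2). IC50, the concentration halving viability, fitted by nonlinear regression.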
# [6] = concentration of compound required with chloramphenicol 2 μg/mL
# [7] = concentration of compound required with chloramphenicol 4 μg/mL
compound,measurement,setting,value
"CC(C)OC(=O)CC[C@@H](C)[C@H]1CCC2C3CCC4C[C@@H](NCCNCCNCCNCCNCCN)CC[C@]4(C)C3CC[C@@]21C (stereo partly drawn) [(26), isopropyl 3β-(pentaethylenehexamine)lithocholate]",MIC,S. intermedius (1051997),8 µg/mL
same,"MIC P. aeruginosa (1051575), compound + erythromycin",P. aeruginosa (1051575) [1],60 µg/mL
same,MIC,E. coli (1956),60 µg/mL
same,MIC,P. aeruginosa (1051575) [2],60 µg/mL
same,"MIC P. aeruginosa (1051575), compound + chloramphenicol",P. aeruginosa (1051575) [3]; [6],8 µg/mL
same,MIC,S. aureus (340),18 µg/mL
"CC(C)OC(=O)CC[C@@H](C)[C@H]1CCC2C3CCC4C[C@@H](NCCN(CCN)CCN)CC[C@]4(C)C3C[C@H](O)[C@@]21C (stereo partly drawn) [(29), isopropyl 3β-(tris(2-aminoethyl)amine)deoxycholate]","MIC P. aeruginosa (1051575), compound + ampicillin",P. aeruginosa (1051575) [4],56 µg/mL
same,MIC,E. faecalis ATCC29212,28 µg/mL
same,MIC,E. coli ATCC28922,14 µg/mL
same,MIC,S. aureus ATCC25923,28 µg/mL
same,MIC,P. aeruginosa ATCC27853,56 µg/mL
same,MIC,S. intermedius (1051997),14 µg/mL
same,"MIC P. aeruginosa (1051575), compound + erythromycin",P. aeruginosa (1051575) [1],56 µg/mL
same,MIC,E. coli (1956),28 µg/mL
same,MIC,P. aeruginosa (1051575) [2],56 µg/mL
same,"MIC P. aeruginosa (1051575), compound + chloramphenicol",P. aeruginosa (1051575) [3]; [7],7 µg/mL
same,MIC - P. aeruginosa (1051575): content of compound of formula (I) to restore the doxycycline activity (at 2 μg/mL),P. aeruginosa (1051575) [5],4 µg/mL
same,MIC,S. aureus (340),14 µg/mL
"CC(C)OC(=O)CC[C@@H](C)[C@H]1CCC2C3C(C[C@H](O)[C@@]21C)[C@@]1(C)CC[C@H](NCCCN(C)CCCN)CC1C[C@H]3O (stereo partly drawn) [(36), isopropyl 3β-(bis(3-aminopropyl)methylamine)cholate]","MIC P. aeruginosa (1051575), compound + ampicillin",P. aeruginosa (1051575) [4],58 µg/mL
same,MIC,E. faecalis ATCC29212,58 µg/mL
same,MIC,E. coli ATCC28922,58 µg/mL
same,MIC,S. aureus ATCC25923,29 µg/mL
same,MIC,P. aeruginosa ATCC27853,58 µg/mL
same,MIC,S. intermedius (1051997),14 µg/mL
same,"MIC P. aeruginosa (1051575), compound + erythromycin",P. aeruginosa (1051575) [1],58 µg/mL
same,MIC,E. coli (1956),58 µg/mL
same,MIC,P. aeruginosa (1051575) [2],58 µg/mL
same,"MIC P. aeruginosa (1051575), compound + chloramphenicol",P. aeruginosa (1051575) [3]; [7],8 µg/mL
same,MIC - P. aeruginosa (1051575): content of compound of formula (I) to restore the doxycycline activity (at 2 μg/mL),P. aeruginosa (1051575) [5],4 µg/mL
same,MIC,S. aureus (340),29 µg/mL
"CC(C)OC(=O)CC[C@@H](C)[C@H]1CCC2C3C(CC[C@@]21C)[C@@]1(C)CC[C@H](NCCN(CCN)CCN)CC1C[C@@H]3O (stereo partly drawn) [(43), isopropyl 3β-(tris(2-aminoethyl)amine)ursodeoxycholate]",MIC,S. intermedius (1051997),7 µg/mL
same,"MIC P. aeruginosa (1051575), compound + erythromycin",P. aeruginosa (1051575) [1],28 µg/mL
same,MIC,E. coli (1956),56 µg/mL
same,MIC,P. aeruginosa (1051575) [2],14 µg/mL
"CC(C)OC(=O)CC[C@@H](C)[C@H]1CCC2C3C(CC[C@@]21C)[C@@]1(C)CC[C@H](NCCCN(C)CCCN)CC1C[C@@H]3O (stereo partly drawn) [(44), isopropyl 3β-(bis(3-aminopropyl)methylamine)ursodeoxycholate]",MIC,S. intermedius (1051997),14 µg/mL
same,"MIC P. aeruginosa (1051575), compound + erythromycin",P. aeruginosa (1051575) [1],55 µg/mL
same,MIC,E. coli (1956),56 µg/mL
same,MIC,P. aeruginosa (1051575) [2],28 µg/mL
same,"MIC P. aeruginosa (1051575), compound + chloramphenicol",P. aeruginosa (1051575) [3]; [6],14 µg/mL
same,MIC,S. aureus (340),28 µg/mL
"CC(C)OC(=O)CC[C@@H](C)[C@H]1CCC2C3CCC4C[C@@H](NCCCN(CCCN)CCCN)CC[C@]4(C)C3CC[C@@]21C (stereo partly drawn) [(47), isopropyl 3β-(tris(3-aminopropyl)amine)lithocholate]",IC50,"C. albicans; Candida albicans, read-out: IC50 (μg/mL) C. albicans",2 µg/mL
same,MIC,S. intermedius (1051997),4 µg/mL
same,"MIC P. aeruginosa (1051575), compound + erythromycin",P. aeruginosa (1051575) [1],30 µg/mL
same,IC50,"CHO-K1 cells; Cricetulus griseus, CHO-K1, CHO (Example 7), read-out: IC50 (μg/mL) CHO",120 µg/mL
same,MIC,E. coli (1956),60 µg/mL
same,MIC,P. aeruginosa (1051575) [2],30 µg/mL
same,"MIC P. aeruginosa (1051575), compound + chloramphenicol",P. aeruginosa (1051575) [3]; [6],4 µg/mL
same,MIC,S. aureus (340),7 µg/mL
"CC(C)OC(=O)CC[C@@H](C)[C@H]1CCC2C3CCC4C[C@@H](NCCN(CCN)CCN)CC[C@]4(C)C3CC[C@@]21C (stereo partly drawn) [(48), isopropyl 3β-(tris(2-aminoethyl)amine)lithocholate]",MIC,S. intermedius (1051997),7 µg/mL
same,"MIC P. aeruginosa (1051575), compound + erythromycin",P. aeruginosa (1051575) [1],55 µg/mL
same,"MIC P. aeruginosa (1051575), compound + chloramphenicol",P. aeruginosa (1051575) [3]; [6],7 µg/mL
"CC(C)OC(=O)CC[C@@H](C)[C@H]1CCC2C3CCC4C[C@@H](NCCCN(C)CCCN)CC[C@]4(C)C3CC[C@@]21C (stereo partly drawn) [(49), isopropyl 3β-(bis(3-aminopropyl)methylamine)lithocholate]",MIC,S. intermedius (1051997),14 µg/mL
same,"MIC P. aeruginosa (1051575), compound + erythromycin",P. aeruginosa (1051575) [1],55 µg/mL
same,MIC,E. coli (1956),27 µg/mL
same,MIC,P. aeruginosa (1051575) [2],27 µg/mL
same,"MIC P. aeruginosa (1051575), compound + chloramphenicol",P. aeruginosa (1051575) [3]; [6],14 µg/mL
same,MIC,S. aureus (340),27 µg/mL
methyl 3β-(bis(3-aminopropyl)methylamine)ursodeoxycholate [(53)],MIC E. faecalis Human ATCC29212,E. faecalis ATCC29212; Gram-positive,55 µg/mL
same,MIC E. coli Human ATCC28922,E. coli ATCC28922; Gram-negative,55 µg/mL
same,MIC S. aureus Human ATCC25923,S. aureus ATCC25923; Gram-positive,27 µg/mL
same,IC50 (μg/mL) C. albicans,C. albicans,3 µg/mL
same,MIC P. aeruginosa Human ATCC27853,P. aeruginosa ATCC27853; Gram-negative,55 µg/mL
same,MIC S. intermedius Animal (1051997),S. intermedius (1051997),7 µg/mL
same,IC50 (μg/mL) CHO,CHO-K1 cells; CHO (Example 7),50 µg/mL
same,IC50 (μg/mL) CHO,"CHO-K1 cells; Table III, WST1, CHO-K1 cells, 24 h, concentration reducing cell viability by 50%",50 µg/mL
same,MIC E. coli Animal (1956),E. coli (1956),55 µg/mL
same,MIC P. aeruginosa Animal (1051575),P. aeruginosa (1051575) [2],55 µg/mL
same,MIC - P. aeruginosa (1051575): content of compound of formula (I) to restore the doxycycline activity (at 2 μg/mL),P. aeruginosa (1051575) [5],7 µg/mL
same,MIC S. aureus Animal (340),S. aureus (340),27 µg/mL
